According to patent US9814727B2, “Piperazine phenothiazine derivatives for treating spasticity” (UNIVERSITE D'AIX-MARSEILLE, priority 2014, dated 2017):

How the values were obtained:
KCC2 = assay: FluxOR fluorescence based thallium (Tl+) influx assay on KCC2-expressing HEK293 cells; assay type: cell-based; conditions: for effect on KCC2 activity, normalized to the maximal effect obtained with compound 1: 30 μM, HEK KCC2 cells, 15 minutes incubation
Description: Wild-type or KCC2-expressing Human Embryonic Kidney (HEK) 293 cells (provided by Prof. Eric Delpire Department of Anesthesiology, Vanderbilt University Medical Center, Nashville, Tenn.) were grown up to 80-90% confluence in DMEM/Ham's F-12 (1:1) (Life technologies, Carlsbad, Calif., USA) supplemented with 10% FBS (Life technologies), 50 units/mL penicillin, and 50 µg/mL streptomycin (Life technologies). KCC2-expressing clones were under puromycin selection (20 μg/ml, Life technologies).
The FluxOR™ potassium ion channel assay (Life Technologies Carlsbad, Calif., USA) was performed as outlined in the product information sheet and an earlier published study (Delpire et al., 2009, Proc. Natl. Acad. Sci. USA, 106, 5383-88) to assess KCC2 activity, and adapted to semi-automated high throughput screening. The experiment was performed in the presence of ouabain 200 μM and bumetanide 10 μM in all buffers to block the Na^+/K^+ pump and NKCC1 cotransporters, respectively. Briefly, cells in suspension were incubated in the loading buffer containing the dye at room temperature for 90 min (1/2000 dilution of FluxOR reagent) at the density of 100.000 cells/75 μl, then centrifugated and resuspended in Assay buffer at the same cell density. A number of 100.000 cells (75 μl) were manually handled in each well to the 96-wells black-walled, μclear-bottom plates (Greiner Bio-One, Monroe, N.C., USA) and 5 μl of chemical compounds 1-8 at different concentrations in PBS 1% DMSO (5, 30 and 50 μM) were added to the plates using the Biomek® NX Laboratory automation workstation (Beckman Coulter, Villepinte, France). After 15 minutes incubation, baseline fluorescent signal was measured with the Polarstar omega microplate reader (490 nm excitation and 520 nm emission, BMG Labtech). Then 20 μL per well of 5× thallium stimulus buffer (final concentrations: Tl^+: 2 mM, K^+: 10 mM) was injected and fluorescent signal was read 30 minutes later.
For each plate, 2 columns were dedicated to controls (cell density range from 0.25 to 1.10^5 cells; loading buffer as blank; untreated or treated with NEM (33 μM, for 15 min) wild-type and KCC2-expressing HEK293 cells).
Baseline fluorescent value was subtracted from the fluorescent value measured 30 min after stimulus buffer injection for each well, and this difference was normalized to the number of cells. […] Values converted to percentages such that the maximum of ratio is 100%.

HEK cells = assay: PrestoBlue cell viability assay (cytotoxicity); assay type: cell-based, Human; conditions: 30 μM
Description: Cytotoxicity were evaluated with fluorescent viability assay on HEK cells lines incubated 1 h with several concentrations of drugs. TC50: Toxic Concentration for 50% of the population.
After stimulus buffer induced signal acquisition, PrestoBlue® Cell Viability Reagent (Life technologies), a cell permeable resazurin-based solution was used according to manufacturer procedure as a cell viability indicator (Excitation/Emission (nm): 535-560/590-615).

Compound | effect on KCC2 activity, normalized to the maximal effect obtained with compound 1 (KCC2) [%] | specific activation of KCC2 across a dose range (KCC2; HEK KCC2 compared to WT HEK cells, non-cytotoxic dose range) | cytotoxicity (HEK cells)
CN1CCN(CCCN2c3ccccc3Sc3ccccc32)CC1 [compound 7, 10-[3-(4-methylpiperazin-1-yl)propyl]-10H-phenothiazine] | 55 |  | 
OCCN1CCN(CCCN2c3ccccc3Sc3ccc(Cl)cc32)CC1 [compound 1, 2-[4-[3-(2-chloro-10H-phenothiazin-10-yl)propyl]piperazin-1-yl]ethanol] | 100 | activate specifically KCC2 in a dose dependant manner | 
CCSc1ccc2c(c1)N(CCCN1CCN(C)CC1)c1ccccc1S2 [compound 8, 2-(ethylthio)-10-[3-(4-methylpiperazin-1-yl)propyl]-10H-phenothiazine] |  |  | cytotoxic
